Values after ≈ are worked out from the molar mass of the structure shown.
Key:
[1] = Cytotoxicity against human MRC5 cells assessed as reduction in cell viability after 24 hrs by neutral red uptake assay; assay type: cell-based
Mycobacterium avium [2] = experiment: Antimycobacterial activity against Mycobacterium avium ssp. avium ATCC 15769 harboring pSMT1 carrying luxAB gene after 6 days by luminescence based serial dilution method; assay type: functional, Mycobacterium avium subsp. avium; details: ATCC 15769, 144 h
Mycobacterium avium [3] = experiment: Antimycobacterial activity against Mycobacterium avium ssp. paratuberculosis ATCC 19698 harboring pSMT1 carrying luxAB gene after 6 days by luminescence based serial dilution method; assay type: functional, Mycobacterium avium subsp. paratuberculosis; details: ATCC 19698, 144 h
[4] = test system: Mycolicibacterium smegmatis; experiment: Antimycobacterial activity against Mycobacterium smegmatis MC2 155 harboring pSMT1 carrying luxAB gene after 6 days by luminescence based serial dilution method; assay type: functional; details: str. MC2 155, 144 h

| Compound | CC50 at 24 h [1] [µM] | MIC90 (Mycobacterium avium [2]) [µM] | MIC90 (Mycobacterium avium [3]) [µM] | MIC90 [4] [µM] |
| --- | --- | --- | --- | --- |
| O=c1[nH]c2c(O)cccc2c(O)c1-c1ccccc1 | 84.1 | 17 (≈ 4.31 µg/mL) | 13.7 (≈ 3.47 µg/mL) | 20 (≈ 5.07 µg/mL) |
| NNC(=O)c1ccncc1 [ISONIAZID] | – | < 0.1 | < 0.1 | < 0.1 |
| Cc1c(O)c2ccccc2[nH]c1=O | 84.7 | 18.4 (≈ 3.22 µg/mL) | 14.5 (≈ 2.54 µg/mL) | 23.2 (≈ 4.06 µg/mL) |
| Cc1cc2[nH]c(=O)c(-c3ccccc3)c(O)c2cc1C | 61.8 | 15.7 (≈ 4.17 µg/mL) | 20.3 (≈ 5.39 µg/mL) | 17.3 (≈ 4.59 µg/mL) |
| O=c1c(-c2ccccc2)c(O)c2ccccc2n1-c1ccccc1 | > 128 | 35.4 (≈ 11.1 µg/mL) | 23.8 (≈ 7.46 µg/mL) | 10.3 (≈ 3.23 µg/mL) |
| O=c1[nH]c2ccc(O)cc2c(O)c1-c1ccccc1 | > 128 | 15.6 (≈ 3.95 µg/mL) | 13.2 (≈ 3.34 µg/mL) | 16.8 (≈ 4.25 µg/mL) |
| COc1cccc2c(O)c(-c3ccccc3)c(O)nc12 | 104 | 13 (≈ 3.47 µg/mL) | 18 (≈ 4.81 µg/mL) | 15.1 (≈ 4.04 µg/mL) |
| O=c1[nH]c2ccc(F)cc2c(O)c1-c1ccccc1 | 67.4 | 8.5 (≈ 2.17 µg/mL) | 11.5 (≈ 2.94 µg/mL) | 8.4 (≈ 2.14 µg/mL) |
| Cc1ccc2[nH]c(=O)c(-c3ccccc3)c(O)c2c1 | > 128 | 12.6 (≈ 3.17 µg/mL) | 13.2 (≈ 3.32 µg/mL) | 19.2 (≈ 4.82 µg/mL) |
| CC(=O)Oc1c(-c2ccccc2)c(=O)[nH]c2ccc(F)cc12 | 88.4 | 8.9 (≈ 2.65 µg/mL) | 7.5 (≈ 2.23 µg/mL) | 9.5 (≈ 2.82 µg/mL) |
| COc1ccc2[nH]c(=O)c(-c3ccccc3)c(O)c2c1 | 75.4 | 17.5 (≈ 4.68 µg/mL) | 18.6 (≈ 4.97 µg/mL) | 15.3 (≈ 4.09 µg/mL) |
| O=c1[nH]c2cc(O)ccc2c(O)c1-c1ccccc1 | 92.1 | 16.3 (≈ 4.13 µg/mL) | 15.7 (≈ 3.98 µg/mL) | 18.5 (≈ 4.69 µg/mL) |
| Oc1nc2ccccc2c(O)c1-c1ccccc1 | 96.5 | 19.8 (≈ 4.7 µg/mL) | 21.2 (≈ 5.03 µg/mL) | 23.5 (≈ 5.58 µg/mL) |
| COc1ccc2c(O)c(-c3ccccc3)c(=O)[nH]c2c1 | 59 | 13.8 (≈ 3.69 µg/mL) | 16.5 (≈ 4.41 µg/mL) | 19.5 (≈ 5.21 µg/mL) |
